The text below walks through data of patent US10028509B2 (priority 2012, dated 2018).

What all share (assay type): in vivo
The subject of one assay is Phytophthora infestans. Conditions: tomatoes, preventive spray, evaluated 3 days after inoculation.
In a further assay the test system is Alternaria solani. Nature of the assay: Alternaria Test (Tomatoes)/Preventive. The note with it: preventive spray, 100 ppm a.i., evaluated 3 days after inoculation.
A further assay deals with Venturia inaequalis. Nature of the assay: Venturia Test (Apples)/Preventive. Conditions: preventive spray, evaluated 10 days after inoculation.

Read-outs that look alike come from different tables or passages of the source.

In the case of `O=C(NCc1ncc(C(F)(F)F)cc1Cl)c1c(Cl)cccc1Cl` [F143 fluopicolide, fluopicolide], the “Efficacy in % found” value in the assay on Phytophthora infestans (Table A1, 5 ppm a.i.) is given as 32%; with Alternaria solani, 0%.
Turning to `N#Cc1c(Cl)c(Cl)c(Cl)c(C#N)c1Cl` [F155 chlorothalonil, chlorothalonil], the “Efficacy in % found” value with Venturia inaequalis (10 ppm a.i.) was found to be 43%.
For mancozeb [F174 mancozeb], the “Efficacy in % found” value was 15% in the assay with Phytophthora infestans (Table A2, 10 ppm a.i.) and 24% in the assay with Venturia inaequalis (20 ppm a.i.).
Regarding propineb [F180 propineb], the “Efficacy in % found” value with Phytophthora infestans (Table A2, 10 ppm a.i.) came to 23%.
